From patent USRE47689E1, “Compounds for treating spinal muscular atrophy” (PTC Therapeutics, Inc., priority 2011, dated 2019)
Read-outs that look alike come from different tables or passages of the source.

Columns and labels:
Smn protein = Smn protein assay in cultured cells (SMN HTRF); assay type: cell-based, human; settings: 48 hours; for EC1.5x (concentration giving 1.5-fold Smn protein increase): SMA Type 1 patient fibroblast cells (GM03813), 7-point concentration curve, SMN HTRF, concentration producing 1.5 times Smn protein vs DMSO vehicle control, read-out: EC1.5x for Smn protein expression; for maximum fold (Fold) increase of Smn protein: SMA patient fibroblast cells, 7-point concentration data, fold increase relative to vehicle control (SMN HTRF)
In short: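 Lysates in RIPA with protease inhibitors are incubated overnight at room temperature with HTRF anti-SMN antibodies. EC1.5x is derived from fold increase in ΔF over vehicle.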

[1] = tested on: SMN2 minigene (full length SMN2 minigene mRNA containing SMN2 exon 7); test: SMN2 minigene mRNA splicing RT-qPCR assay in cultured cells; assay type: cell-based, human; settings: Homo sapiens, HEK293-H, read-out: EC1.5x for production of full length SMN2 mRNA
In short: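 HEK293H cells stably carrying the SMN2-A minigene treated 24 h at 37° C with compound (DMSO, 200× stock), then lysed. Multiplex RT-qPCR (SMN primers 0.4 μM final; 40 cycles) measures full-length exon 7-containing minigene mRNA, normalized to GAPDH and to vehicle; EC1.5x derived and binned by stars.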

[2] = HEK293H cells stably transfected with SMN2-A minigene, 24 hours, 7-point concentration curve, 1.5-fold relative to vehicle-treated cells

For Cc1cn2cc(-c3cc4ccc(C5CCNCC5)cc4oc3=O)nc2cn1 [Compound 868, 3-(6-methylimidazo[1,2-a]pyrazin-2-yl)-7-(piperidin-4-yl)-2H-chromen-2-one], the melting point was 247 to 253 °C, the EC1.5x (concentration giving 1.5-fold Smn protein increase) (Smn protein) was under 300 nM and the “maximum fold (Fold) increase of Smn protein” value (from here on “maximum fold (Fold) increase”) (Smn protein) was “***** (fold increase >1.65)”. For the same compound, the EC (1.5-fold) [1, 2] was under 0.1 µM.
In the case of Cc1ccc2nc(-c3cc4ccc(N(C)CCN(C)C)cc4oc3=O)cn2c1 [Compound 175, 7-{[2-(dimethylamino)ethyl](methyl)amino}-3-(6-methylimidazo[1,2-a]pyridin-2-yl)-2H-chromen-2-one], the melting point is reported as 140 to 180 °C (dec.), the “maximum fold (Fold) increase” value (Smn protein) is reported as “* (maximum fold increase of ≤1.2)” and the EC (1.5-fold) [1, 2] is reported as 3 to 30 µM.
With C[C@@H]1CN[C@@H](C)CN1c1ccc2cc(-c3cn4cc(Cl)ccc4n3)c(=O)oc2c1 [Compound 93, 3-(6-chloroimidazo[1,2-a]pyridin-2-yl)-7-[(2R,5S)-2,5-dimethylpiperazin-1-yl]-2H-chromen-2-one] the melting point was 245 to 247 °C, the “maximum fold (Fold) increase” value (Smn protein) was “** (fold increase between >1.2 and ≤1.35)” and the EC (1.5-fold) [1, 2] was 1 to 3 µM.
In the case of CN1CCCN(c2ccc3cc(-c4cn5cc(F)ccc5n4)c(=O)oc3c2)CC1 [Compound 294, 3-(6-fluoroimidazo[1,2-a]pyridin-2-yl)-7-(4-methyl-1,4-diazepan-1-yl)-2H-chromen-2-one], the melting point is reported as 152 to 155 °C, the EC1.5x (concentration giving 1.5-fold Smn protein increase) (Smn protein) is reported as 1000 to 3000 nM and the “maximum fold (Fold) increase” value (Smn protein) is reported as “** (fold increase between >1.2 and ≤1.35)”. The EC (1.5-fold) [1, 2] was 0.1 to 0.3 µM.
For CC1(C)CN(c2ccc3cc(-c4cn5ccc(C(F)(F)F)cc5n4)c(=O)oc3c2)CCN1 [Compound 269, 7-(3,3-dimethylpiperazin-1-yl)-3-[7-(trifluoromethyl)imidazo[1,2-a]pyridin-2-yl]-2H-chromen-2-one], the melting point was 221 to 227 °C, the “maximum fold (Fold) increase” value (Smn protein) was “* (maximum fold increase of ≤1.2)” and the EC (1.5-fold) [1, 2] was 1 to 3 µM.
For Cc1ccn2cc(-c3cc4ccc(N5CCCNCC5)cc4oc3=O)nc2c1 [Compound 216, 7-(1,4-diazepan-1-yl)-3-(7-methylimidazo[1,2-a]pyridin-2-yl)-2H-chromen-2-one], the melting point was 236 °C, the “maximum fold (Fold) increase” value (Smn protein) was “*** (fold increase between >1.35 and ≤1.5)” and the EC (1.5-fold) [1, 2] was 0.3 to 1 µM.
In the case of Cc1cn2cc(-c3cc4ccc(N5C[C@@H](C)N(C)[C@@H](C)C5)cc4oc3=O)nc2c(C)n1 [Compound 605, 3-(6,8-dimethylimidazo[1,2-a]pyrazin-2-yl)-7-[(3R,5S)-3,4,5-trimethylpiperazin-1-yl]-2H-chromen-2-one], the melting point is reported as 229 to 232 °C, the EC1.5x (concentration giving 1.5-fold Smn protein increase) (Smn protein) is reported as under 300 nM and the “maximum fold (Fold) increase” value (Smn protein) is reported as “***** (fold increase >1.65)”. The EC (1.5-fold) [1, 2] was under 0.1 µM.
In the case of COc1cccc(-c2cc3ccc(N4CCCN(C)CC4)cc3oc2=O)n1 [Compound 359, 3-(6-methoxypyridin-2-yl)-7-(4-methyl-1,4-diazepan-1-yl)-2H-chromen-2-one], the melting point is reported as 155 to 158 °C, the “maximum fold (Fold) increase” value (Smn protein) is reported as “* (maximum fold increase of ≤1.2)” and the EC (1.5-fold) [1, 2] is reported as 3 to 30 µM.
For Cc1cn2cc(-c3cc4ccc(CCCN(C)CCO)cc4oc3=O)nc2c(C)n1 [Compound 880, 3-(6,8-dimethylimidazo[1,2-a]pyrazin-2-yl)-7-{3-[(2-hydroxyethyl)(methyl)amino]propyl}-2H-chromen-2-one], the melting point was 173 to 176 °C, the EC1.5x (concentration giving 1.5-fold Smn protein increase) (Smn protein) was under 300 nM and the “maximum fold (Fold) increase” value (Smn protein) was “**** (fold increase between >1.5 and ≤1.65)”. It also gave an EC (1.5-fold) [1, 2] of under 0.1 µM.
For C[C@@H]1CN(c2ccc3cc(-c4cc5ccccc5s4)c(=O)oc3c2)C[C@H](C)N1 [Compound 408, 3-(1-benzothiophen-2-yl)-7-[(3R,5S)-3,5-dimethylpiperazin-1-yl]-2H-chromen-2-one], the melting point was 271 to 273 °C, the “maximum fold (Fold) increase” value (Smn protein) was “* (maximum fold increase of ≤1.2)” and the EC (1.5-fold) [1, 2] was 0.3 to 1 µM.
With Cc1ccc2nc(-c3cc4ccc(N5CCN[C@@H](C)C5)cc4oc3=O)cn2n1 [Compound 624, 3-(6-methylimidazo[1,2-b]pyridazin-2-yl)-7-[(3S)-3-methylpiperazin-1-yl]-2H-chromen-2-one] the melting point was 208 to 212 °C, the “maximum fold (Fold) increase” value (Smn protein) was “*** (fold increase between >1.35 and ≤1.5)” and the EC (1.5-fold) [1, 2] was under 0.1 µM.
With Cc1cn2cc(-c3cc4ccc(N5CCN(C6CCC6)CC5)cc4oc3=O)nc2c(C)n1 [Compound 822, 7-(4-cyclobutylpiperazin-1-yl)-3-(6,8-dimethylimidazo[1,2-a]pyrazin-2-yl)-2H-chromen-2-one] the melting point was 260 to 262 °C, the EC1.5x (concentration giving 1.5-fold Smn protein increase) (Smn protein) was under 300 nM and the “maximum fold (Fold) increase” value (Smn protein) was “**** (fold increase between >1.5 and ≤1.65)”. For the same compound, the EC (1.5-fold) [1, 2] was under 0.1 µM.
In the case of Cc1ccc2cc(-c3cc4ccc(N5C[C@@H](C)N[C@@H](C)C5)cc4oc3=O)cn2n1 [Compound 639, 7-[(3R,5S)-3,5-dimethylpiperazin-1-yl]-3-(2-methylpyrrolo[1,2-b]pyridazin-6-yl)-2H-chromen-2-one], the melting point is reported as 105 to 108 °C, the “maximum fold (Fold) increase” value (Smn protein) is reported as “* (maximum fold increase of ≤1.2)” and the EC (1.5-fold) [1, 2] is reported as under 0.1 µM.
For Cc1cn2cc(-c3cc4ccc(CN5CCN(C)CC5)cc4oc3=O)nc2c(C)n1 [Compound 849, 3-(6,8-dimethylimidazo[1,2-a]pyrazin-2-yl)-7-[(4-methylpiperazin-1-yl)methyl]-2H-chromen-2-one], the melting point was 220 to 223 °C, the EC1.5x (concentration giving 1.5-fold Smn protein increase) (Smn protein) was 300 to 1000 nM and the “maximum fold (Fold) increase” value (Smn protein) was “***** (fold increase >1.65)”. For the same compound, the EC (1.5-fold) [1, 2] was 0.1 to 0.3 µM.
For CN1CCN(c2ccc3cc(-c4nc5c(Cl)cccc5o4)c(=O)oc3c2)CC1 [Cpd 68, 3-(4-chloro-1,3-benzoxazol-2-yl)-7-(4-methylpiperazin-1-yl)-2H-chromen-2-one], the melting point was 229 to 231 °C, the “maximum fold (Fold) increase” value (Smn protein) was “** (fold increase between >1.2 and ≤1.35)” and the EC (1.5-fold) [1, 2] was 1 to 3 µM.
In the case of Cc1c(-c2nc3ccccc3s2)c(=O)oc2cc(N3CCNCC3)ccc12 [Compound 147, 3-(1,3-benzothiazol-2-yl)-4-methyl-7-(piperazin-1-yl)-2H-chromen-2-one], the melting point is reported as 234 to 236 °C, the “maximum fold (Fold) increase” value (Smn protein) is reported as “* (maximum fold increase of ≤1.2)” and the EC (1.5-fold) [1, 2] is reported as 1 to 3 µM.
For Cc1cn2cc(-c3cc4ccc(N5CCCN(C)CC5)cc4oc3=O)nc2cn1 [Compound 493, 7-(4-methyl-1,4-diazepan-1-yl)-3-(6-methylimidazo[1,2-a]pyrazin-2-yl)-2H-chromen-2-one], the melting point was 234 to 235 °C, the EC1.5x (concentration giving 1.5-fold Smn protein increase) (Smn protein) was under 300 nM and the “maximum fold (Fold) increase” value (Smn protein) was “***** (fold increase >1.65)”. The EC (1.5-fold) [1, 2] was under 0.1 µM.
For COc1ccncc1-c1cc2ccc(N3CCNCC3)cc2oc1=O [Compound 234, 3-(4-methoxypyridin-3-yl)-7-(piperazin-1-yl)-2H-chromen-2-one], the melting point was 179 to 181 °C, the “maximum fold (Fold) increase” value (Smn protein) was “* (maximum fold increase of ≤1.2)” and the EC (1.5-fold) [1, 2] was 3 to 30 µM.
With CN1CCCN(c2ccc3cc(-c4cn5cccc(F)c5n4)c(=O)oc3c2)CC1 [Compound 295, 3-(8-fluoroimidazo[1,2-a]pyridin-2-yl)-7-(4-methyl-1,4-diazepan-1-yl)-2H-chromen-2-one] the melting point was 174 to 176 °C, the EC1.5x (concentration giving 1.5-fold Smn protein increase) (Smn protein) was 300 to 1000 nM and the “maximum fold (Fold) increase” value (Smn protein) was “**** (fold increase between >1.5 and ≤1.65)”. It also gave an EC (1.5-fold) [1, 2] of under 0.1 µM.
In the case of CCC1CN(c2ccc3cc(-c4cn5cc(C)nc(C)c5n4)c(=O)oc3c2)CCN1 (stereo not shown) [Compound 665, 3-(6,8-dimethylimidazo[1,2-a]pyrazin-2-yl)-7-(3-ethylpiperazin-1-yl)-2H-chromen-2-one], the melting point is reported as 211 to 215 °C, the EC1.5x (concentration giving 1.5-fold Smn protein increase) (Smn protein) is reported as under 300 nM and the “maximum fold (Fold) increase” value (Smn protein) is reported as “***** (fold increase >1.65)”. The EC (1.5-fold) [1, 2] was under 0.1 µM.
In the case of O=c1oc2cc(N3CCNCC3)ccc2cc1-c1cnccc1Cl [Compound 235, 3-(4-chloropyridin-3-yl)-7-(piperazin-1-yl)-2H-chromen-2-one], the melting point is reported as 175 to 177 °C, the “maximum fold (Fold) increase” value (Smn protein) is reported as “* (maximum fold increase of ≤1.2)” and the EC (1.5-fold) ([1]; 24 h) is reported as 1 to 3 µM.
For Cc1cc2oc(-c3cc4ccc(N5CCN(C(C)C)CC5)cc4oc3=O)cc2c(C)n1 [Compound 840, 3-(4,6-dimethylfuro[3,2-c]pyridin-2-yl)-7-[4-(propan-2-yl)piperazin-1-yl]-2H-chromen-2-one], the melting point was 186 to 191 °C, the “maximum fold (Fold) increase” value (Smn protein) was “* (maximum fold increase of ≤1.2)” and the EC (1.5-fold) [1, 2] was 0.3 to 1 µM.
For Cc1cn2cc(-c3cc4ccc(N5CCCNCC5)cc4oc3=O)ccc2n1 [Compound 663, 7-(1,4-diazepan-1-yl)-3-(2-methylimidazo[1,2-a]pyridin-6-yl)-2H-chromen-2-one], the melting point was 222 to 225 °C, the “maximum fold (Fold) increase” value (Smn protein) was “*** (fold increase between >1.35 and ≤1.5)” and the EC (1.5-fold) [1, 2] was under 0.1 µM.
With Cc1cn2cc(-c3cc4ccc(N5CCCN(C)CC5)cc4oc3=O)cnc2n1 [Compound 662, 7-(4-methyl-1,4-diazepan-1-yl)-3-(2-methylimidazo[1,2-a]pyrimidin-6-yl)-2H-chromen-2-one] the melting point was 286 to 289 °C, the EC1.5x (concentration giving 1.5-fold Smn protein increase) (Smn protein) was 1000 to 3000 nM and the “maximum fold (Fold) increase” value (Smn protein) was “*** (fold increase between >1.35 and ≤1.5)”. The EC (1.5-fold) [1, 2] was under 0.1 µM.
